The target of one test is adenosine A2B receptor (Homo sapiens (Human), UniProt P29275). Kind of test: Adenosine receptor activity assay (Table 1), A2B activity. The test is classed as biochemical. The conditions noted are these: for Ratio: A2A activity to A2B activity (A2A/A2B); for IC50: read-out: Ave A2B cAMP IC50.
For the next test, the target named is adenosine A2A receptor (Homo sapiens (Human), UniProt P29274). Kind of test: Adenosine receptor activity assay (Table 1), A2A activity. The test is classed as biochemical. Conditions: read-out: Ave A2A cAMP IC50.
Sequence of adenosine A2A receptor (P29274 whole entry): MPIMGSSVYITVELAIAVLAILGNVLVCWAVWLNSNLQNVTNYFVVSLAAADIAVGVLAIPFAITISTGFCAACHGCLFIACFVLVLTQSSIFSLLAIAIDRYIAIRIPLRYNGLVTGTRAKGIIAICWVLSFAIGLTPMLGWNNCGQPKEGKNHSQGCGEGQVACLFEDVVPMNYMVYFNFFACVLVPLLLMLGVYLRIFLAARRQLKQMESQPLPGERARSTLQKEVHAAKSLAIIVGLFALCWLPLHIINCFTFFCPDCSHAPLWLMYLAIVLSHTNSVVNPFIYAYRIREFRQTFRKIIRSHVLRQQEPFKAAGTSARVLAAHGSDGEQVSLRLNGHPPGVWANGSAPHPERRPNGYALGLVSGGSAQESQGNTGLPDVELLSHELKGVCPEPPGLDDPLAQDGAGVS
The target of a further test is adenosine A1 receptor (Homo sapiens (Human), UniProt P30542). Description: Adenosine receptor activity assay (Table 1), A1 cAMP. The class given is cell-based.
Sequence of adenosine A1 receptor (P30542 whole entry): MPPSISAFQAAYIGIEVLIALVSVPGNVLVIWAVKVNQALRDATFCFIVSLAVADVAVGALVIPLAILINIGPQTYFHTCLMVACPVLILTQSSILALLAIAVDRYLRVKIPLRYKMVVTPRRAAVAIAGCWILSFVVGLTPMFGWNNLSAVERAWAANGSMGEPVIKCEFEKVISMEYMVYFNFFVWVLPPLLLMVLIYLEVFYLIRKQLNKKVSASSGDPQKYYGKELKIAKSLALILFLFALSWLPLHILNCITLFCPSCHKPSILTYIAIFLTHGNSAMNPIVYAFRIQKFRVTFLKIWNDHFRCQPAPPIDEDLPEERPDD
The target of another test is adenosine A3 receptor (Homo sapiens (Human), UniProt P0DMS8). Description: Adenosine receptor activity assay (Table 1), A3 cAMP. The class given is cell-based.
Sequence of adenosine A3 receptor (P0DMS8 whole entry): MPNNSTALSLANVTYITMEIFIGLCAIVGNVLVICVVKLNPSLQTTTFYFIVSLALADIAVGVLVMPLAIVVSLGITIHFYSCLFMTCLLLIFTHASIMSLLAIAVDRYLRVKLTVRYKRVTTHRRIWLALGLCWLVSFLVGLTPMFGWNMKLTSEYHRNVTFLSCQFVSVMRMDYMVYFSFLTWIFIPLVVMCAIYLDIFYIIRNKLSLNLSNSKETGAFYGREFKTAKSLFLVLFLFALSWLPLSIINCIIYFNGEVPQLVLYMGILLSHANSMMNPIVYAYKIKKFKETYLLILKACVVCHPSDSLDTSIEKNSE

For orientation: IC50 means the concentration that inhibits the measured activity by half.

Sequence of adenosine A2B receptor (P29275 whole entry): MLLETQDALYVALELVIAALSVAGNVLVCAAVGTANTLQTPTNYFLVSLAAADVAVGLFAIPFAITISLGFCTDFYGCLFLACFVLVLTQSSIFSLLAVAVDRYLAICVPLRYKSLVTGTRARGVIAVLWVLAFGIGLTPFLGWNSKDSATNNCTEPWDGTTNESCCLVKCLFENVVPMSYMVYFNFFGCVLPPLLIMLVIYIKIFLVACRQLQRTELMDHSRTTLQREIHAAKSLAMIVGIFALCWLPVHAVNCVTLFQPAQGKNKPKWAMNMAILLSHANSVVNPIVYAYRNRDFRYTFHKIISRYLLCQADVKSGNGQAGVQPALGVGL

As for `C[C@H](Nc1nc(C(=O)NCCc2ccncc2)c2sccc2n1)c1cncc(F)c1` [Example Z382, (S)-2-((1-(5-Fluoropyridin-3-yl)ethyl)amino)-N-(2-(pyridin-4-yl)ethyl)thieno[3,2-d]pyrimidine-4-carboxamide], the Ratio at adenosine A2B receptor is given as 18.44. Also, the IC50 on adenosine A2B receptor was 10 to 50 nM; on adenosine A2A receptor, greater than 500 nM; on adenosine A1 receptor, greater than 500 nM; against adenosine A3 receptor, greater than 500 nM.

With `CC(=O)N[C@H]1CCN(C(=O)c2nc(N[C@@H](C)c3cncc(F)c3)nc3cc(C)sc23)C1` [Example Z383, N—((S)-1-(2-(((S)-1-(5-Fluoropyridin-3-yl)ethyl)amino)-6-methylthieno[3,2-d]pyrimidine-4-carbonyl)pyrrolidin-3-yl)acetamide], the Ratio at adenosine A2B receptor is 55.83. Moreover, the IC50 at adenosine A2B receptor was 10 to 50 nM; on adenosine A2A receptor, greater than 500 nM; against adenosine A1 receptor, greater than 500 nM; on adenosine A3 receptor, 10 to 50 nM.

As for `C[C@H](Nc1nc(C(=O)NCCc2ccc(CO)cc2)c2sccc2n1)c1cncc(F)c1` [Example Z384, (S)-2-((1-(5-Fluoropyridin-3-yl)ethyl)amino)-N-(4-(hydroxymethyl)phenethyl)thieno[3,2-d]pyrimidine-4-carboxamide], the Ratio at adenosine A2B receptor came out at 13.78. Moreover, the half-maximal inhibitory concentration (IC50) on adenosine A2B receptor is 10 to 50 nM; on adenosine A2A receptor, 100 to 500 nM; at adenosine A1 receptor, 50 to 100 nM; against adenosine A3 receptor, greater than 500 nM.

Consider `C[C@H](Nc1nc(C(=O)NCCC2CCNC2)c2sccc2n1)c1cncc(F)c1` (stereo partly drawn) [Example Z386, 2-(((S)-1-(5-Fluoropyridin-3-yl)ethyl)amino)-N-(2-(pyrrolidin-3-yl)ethyl)thieno[3,2-d]pyrimidine-4-carboxamide], for which, on adenosine A2B receptor, the Ratio is given as 100.94. For the same molecule, the IC50 at adenosine A2B receptor is 10 to 50 nM; at adenosine A2A receptor it was greater than 500 nM; against adenosine A1 receptor it was greater than 500 nM; against adenosine A3 receptor it was greater than 500 nM.

On to `Cc1cc2nc(N[C@@H](C)c3cncc(F)c3)nc(C(=O)NC[C@@H]3CCOC3)c2s1` [Example Z389, 2-(((S)-1-(5-Fluoropyridin-3-yl)ethyl)amino)-6-methyl-N—(((S)-tetrahydrofuran-3-yl)methyl)thieno[3,2-d]pyrimidine-4-carboxamide], for which, at adenosine A2B receptor, the Ratio came out at 50.96. For the same molecule, the IC50 on adenosine A2B receptor is less than 10 nM; at adenosine A2A receptor, greater than 500 nM; at adenosine A1 receptor, 50 to 100 nM; against adenosine A3 receptor it was 50 to 100 nM.

Regarding `Cc1cc2nc(N[C@@H](C)c3cncc(F)c3)nc(C(=O)NC[C@H]3CCOC3)c2s1` [Example Z390, 2-(((S)-1-(5-fluoropyridin-3-yl)ethyl)amino)-6-methyl-N—(((R)-tetrahydrofuran-3-yl)methyl)thieno[3,2-d]pyrimidine-4-carboxamide], the Ratio on adenosine A2B receptor was 68.99. In addition, the half-inhibitory concentration (IC50) at adenosine A2B receptor is less than 10 nM; on adenosine A2A receptor, 100 to 500 nM; on adenosine A1 receptor it was 50 to 100 nM; at adenosine A3 receptor, 50 to 100 nM.

`C[C@H](O)CNC(=O)c1nc(N[C@@H](C)c2cncc(F)c2)nc2cc(C(F)(F)F)sc12` [Example Z392, 2-(((S)-1-(5-fluoropyridin-3-yl)ethyl)amino)-N—((S)-2-hydroxypropyl)-6-(trifluoromethyl)thieno[3,2-d]pyrimidine-4-carboxamide]: the Ratio at adenosine A2B receptor was 248.84. Besides, the concentration for half-maximal inhibition (IC50) at adenosine A2B receptor is less than 10 nM; on adenosine A2A receptor, greater than 500 nM; against adenosine A1 receptor, 50 to 100 nM; on adenosine A3 receptor, 50 to 100 nM.

`C[C@H](Nc1nc(C(=O)NC[C@@H](C)O)c2sc(C(F)(F)F)cc2n1)c1cncc(F)c1` [Example Z393, 2-(((S)-1-(5-Fluoropyridin-3-yl)ethyl)amino)-N—((R)-2-hydroxypropyl)-6-(trifluoromethyl)thieno[3,2-d]pyrimidine-4-carboxamide]: on adenosine A2B receptor, the Ratio is listed as 399.70. Also, the IC50 is less than 10 nM on adenosine A2B receptor, greater than 500 nM on adenosine A2A receptor, 50 to 100 nM at adenosine A1 receptor and 50 to 100 nM on adenosine A3 receptor.

The values are drawn from US11254686B1 (Corvus Pharmaceuticals, Inc., priority 2017, dated 2022).
